Read-outs that look alike come from different tables or passages of the source.
Columns and labels:
phospho-akt (Thr308) = phospho-akt (Thr308) MSD ELISA in PC-3 cells; format: cell-based; settings: Homo sapiens; for EC50: PC-3, 2 h; for inhibition at 1 µM / inhibition at 10 µM: read-out: Percent Inhibition of phospho-Akt (308) By MSD ELISA
How it was run: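 PC-3 cells plated overnight in 10% FBS medium, then treated with three-fold serial compound dilutions in serum-free medium; DMSO-only wells as high control. Lysates captured on BSA-blocked MSD plates overnight at 4 degrees, detection antibody 1 hr RT, electrochemiluminescence read on MSD reader.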

dephosphorylated PDK1 = dephosphorylated PDK1 (Homo sapiens (Human), UniProt O15530); test: PDK1 kinase assay (coupled PDK1/AKT/FAM-crosstide, IMAP); format: biochemical; settings: 25 nM un-phosphorylated PDK1, 24 μM ATP; read-out: Inhibition of dephospo-PDK1 in vitro IC50
dephosphorylated PDK1, sequence (O15530 51-360): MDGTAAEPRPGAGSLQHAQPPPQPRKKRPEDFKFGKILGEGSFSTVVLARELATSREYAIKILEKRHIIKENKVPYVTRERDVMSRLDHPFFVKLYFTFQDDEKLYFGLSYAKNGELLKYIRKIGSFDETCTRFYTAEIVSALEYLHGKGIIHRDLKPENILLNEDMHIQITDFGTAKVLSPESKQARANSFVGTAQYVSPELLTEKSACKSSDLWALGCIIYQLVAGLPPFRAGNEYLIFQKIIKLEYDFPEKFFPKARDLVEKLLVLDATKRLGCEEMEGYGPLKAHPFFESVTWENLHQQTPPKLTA
Protocol: A PDK1 kinase assay was performed as follows. PDK1 (amino acids 51-360) and AKT2 (amino acids 140-467 fused to PIFtide, amino acids […]) were expressed as N-terminally tagged GST fusion proteins in insect cells and purified to greater than 90% homogeneity. PDK1 protein was divided into two fractions, one of which was subsequently dephosphorylated. To generate dephosphorylated PDK1, the PDK1 was reacted with GST-tagged lambda-phosphatase in vitro. GST was subsequently cleaved proteolytically for both phosphorylated and dephosphorylated PDK1. Protein preparations were run on glutathione Sepharose columns to remove GST and GST-tagged lambda-phosphatase, if present. Phosphorylated PDK1 and dephosphorylated PDK1 were verified by mass-spectrometry. Enzyme activity was determined in a coupled PDK1/AKT/FAM-crosstide assay using either phosphorylated or unphosphorylated PDK1 and phosphorylation of FAM-crosstide was determined by standard IMAP protocol (Molecular Devices). For inhibition studies, compounds were titrated 3-fold in DMSO and diluted 40-fold into assay buffer (10 mM Tris HCl pH7.2; 10 mM MgCl2; 0.01% Triton X-100; 1 mM DTT) containing PDK1, AKT2, and FAM-crosstide. (final concentrations: 25 nM un-phosphorylated PDK1 or 0.5 nM phosphorylated PDK1, 30 nM unphosphorylated AKT2, and 100 nM crosstide substrate). The kinase reaction was initiated by adding ATP to a final concentration of 24 μM for both forms of PDK1 and incubated at 25° C. for 30 min. To detect assay product, the kinase reaction was combined with Progressive Binding Solution (1:600 Progressive Binding Reagent, 50% Buffer A, 50% Buffer B, Molecular Devices) in a 1:3 ratio. The mixture was incubated for 2 hours at 25° C. and the plate was scanned on an Analyst AD with excitation at 485 nm and emission at 530 nm. The fluorescence polarization value “P” is defined by the equation below. The value “mP” is generated by multiplying the P value for each reaction well by a factor of 1000. The value “ΔmP” for each well is the mP value for that well minus the mP value for the average negative control. P=(Fpar−Fperp)/(Fpar+Fperp) Eq.:
Where “par” is fluorescence intensity parallel to the excitation plane; and “perp” is fluorescence intensity perpendicular to the excitation plane. ΔmP values were plotted as a function of compound concentration and the data were analyzed with a 4-parameter fit using GraphPad Prism software.

phosphorylated PDK1 = phosphorylated PDK1 (Homo sapiens (Human), UniProt O15530); test: as above; format: biochemical; settings: 0.5 nM phosphorylated PDK1, 24 μM ATP; read-out: Inhibition of phospo-PDK1 in vitro IC50
phosphorylated PDK1, sequence (O15530 51-360): as above

[1] = PC-3 cells, 2 hours, no serum, read-out: Inhibition of P308 Akt in cells using MSD EC50
[2] = PC-3 cells, 2 hours, no serum, read-out: Reduction of Cellular Levels of Akt p308 By MSD ELISA (EC50 μM)

| Structure (SMILES) | EC50 (phospho-akt (Thr308); [1]) [µM] | EC50 (phospho-akt (Thr308); [2]) [µM] | inhibition at 1 µM (phospho-akt (Thr308); PC-3 cells) [%] | inhibition at 10 µM (phospho-akt (Thr308); PC-3 cells) [%] | IC50 (dephosphorylated PDK1) [nM] | IC50 (phosphorylated PDK1) [nM] | EC50 (phospho-akt (Thr308); read-out: Inhibition of P308 Akt in cells using MSD EC50) [µM] |
| --- | --- | --- | --- | --- | --- | --- | --- |
| O=C(NCc1nnc(-c2c[nH]c3ncccc23)o1)c1cccn(Cc2ccc(F)c(F)c2)c1=O [Cpd 125] | 1 to 5 | 1 to 5 | 25 to 75 | > 75 | < 500 | < 500 |  |
| O=C(Nc1cccc(Cc2c[nH]c3ncccc23)c1)c1cccn(Cc2ccc(F)c(F)c2)c1=O [Cpd 128] | > 5 |  |  |  | < 500 | 500 to 10000 |  |
| O=C(NCc1noc(-c2c[nH]c3ncccc23)n1)c1cccn(Cc2ccc(C(F)(F)F)c(F)c2)c1=O [Cpd 141] | 1 to 5 | 1 to 5 |  |  | < 500 | < 500 |  |
| O=C(NCc1noc(-c2c[nH]c3ncccc23)n1)c1cccn(Cc2ccc(C(F)(F)F)cc2)c1=O [Cpd 143] | > 5 | > 5 |  |  | < 500 | < 500 |  |
| O=C(N[C@H](COc1ccc2[nH]c(=O)[nH]c2c1)c1ccc(F)cc1)c1cccn(Cc2ccc(C(F)(F)F)cc2)c1=O [Cpd 148] | 1 to 5 | 1 to 5 |  |  | < 500 | < 500 |  |
| O=C(NCc1noc(-c2c[nH]c3ncccc23)n1)c1cccn(Cc2cc(F)cc(F)c2)c1=O [Cpd 150] | > 5 |  |  |  | < 500 | < 500 |  |
| O=C(NCc1cc(-c2c[nH]c3ncccc23)[nH]n1)c1cccn(Cc2cc(F)c(F)c(F)c2)c1=O [Cpd 152] | 1 to 5 |  |  |  | < 500 | < 500 |  |
| O=C1Cc2ccc(/C=C/CNC(=O)c3cccn(Cc4cc(F)c(F)c(F)c4)c3=O)cc2N1 [Cpd 166] | > 5 |  |  |  | < 500 | < 500 |  |
| Cc1ccc(NC(=O)c2cccn(Cc3ccc(F)c(F)c3)c2=O)cc1-c1ccc2[nH]c(=O)[nH]c2c1 [Cpd 167] | > 5 |  |  |  | 500 to 10000 | 500 to 10000 |  |
| COC(=O)c1cc(-c2c[nH]c3ncccc23)cc(CNC(=O)c2cccn(Cc3ccc(F)c(F)c3)c2=O)n1 [Cpd 175] | < 1 |  |  |  | < 500 | < 500 |  |
| O=C(NCCOc1ccc2cc[nH]c2c1)c1cccn(Cc2ccc(F)c(F)c2)c1=O [Cpd 179] | > 5 |  |  |  | 500 to 10000 | 500 to 10000 |  |
| Nc1cc(C(=O)NCc2noc(-c3c[nH]c4ncccc34)n2)c(=O)n(Cc2cc(F)c(F)c(F)c2)c1 [Cpd 187] | > 5 |  |  |  | < 500 | < 500 |  |
| O=C1Cc2ccc(/C=C/CNC(=O)c3cc(Cl)cn(Cc4cc(F)c(F)c(F)c4)c3=O)cc2N1 [Cpd 193] |  |  |  |  | < 500 | < 500 | > 5 |
| CC1(C)C(=O)Nc2cc(/C=C/CNC(=O)c3cccn(Cc4cc(F)c(F)c(F)c4)c3=O)ccc21 [Cpd 206] | 1 to 5 |  |  |  | < 500 | 500 to 10000 |  |
| O=C(NCc1cccc(-c2ccc3[nH]ncc3c2)c1)c1cccn(Cc2ccc(F)c(F)c2)c1=O [Cpd 213] |  | 1 to 5 |  |  | < 500 | < 500 |  |
| O=C(NCc1cccc(-c2ccc(=O)[nH]c2)c1)c1cccn(Cc2ccc(F)c(F)c2)c1=O [Cpd 220] |  |  | 25 to 75 | 25 to 75 | 500 to 10000 | 500 to 10000 |  |
| O=C(c1cccn(Cc2ccc(F)c(F)c2)c1=O)N1CCc2ccc(-c3c[nH]c4ncccc34)cc2C1 [Cpd 232] | > 5 |  |  |  | 500 to 10000 | 500 to 10000 |  |
| O=C(NCc1noc(-c2ccc3ncnn3c2)n1)c1cccn(Cc2ccc(F)c(F)c2)c1=O [Cpd 235] |  | > 5 |  |  | < 500 | 500 to 10000 |  |
| COC(=O)C[C@@H](NC(=O)c1cccn(Cc2ccc(F)c(F)c2)c1=O)c1ccc(-c2c[nH]c3ncccc23)s1 [Cpd 236] |  | > 5 |  |  | < 500 | 500 to 10000 |  |
| CN(C)C(=O)C[C@@H](NC(=O)c1cccn(Cc2ccc(F)c(F)c2)c1=O)c1ccc(-c2c[nH]c3ncccc23)s1 [Cpd 237] | > 5 |  | < 25 | 25 to 75 | < 500 | < 500 |  |
| O=C(NCc1cccc(-c2c[nH]c3cnccc23)c1)c1cccn(Cc2ccc(F)c(F)c2)c1=O [Cpd 242] |  |  | < 25 | > 75 | < 500 | 500 to 10000 |  |
| O=C(NCCOc1cc2[nH]c(=O)[nH]c2cn1)c1cccn(Cc2ccc(F)c(F)c2)c1=O [Cpd 279] |  | > 5 |  |  | < 500 | < 500 |  |
| CC(C)n1c(=O)[nH]c2cc(OCCNC(=O)c3cccn(Cc4ccc(F)c(F)c4)c3=O)ccc21 [Cpd 280] | > 5 |  | 25 to 75 | 25 to 75 | < 500 | < 500 |  |
| O=C(NCCOc1ccc2c(c1)[nH]c(=O)n2C1CC1)c1cccn(Cc2ccc(F)c(F)c2)c1=O [Cpd 282] | > 5 |  | < 25 | 25 to 75 | < 500 | < 500 |  |
| O=C(C[C@@H](NC(=O)c1cccn(Cc2ccc(F)c(F)c2)c1=O)c1nnc(-c2c[nH]c3ncccc23)o1)NCCO [Cpd 297] |  |  | < 25 | < 25 | < 500 | < 500 |  |
| C[C@@H](c1ccc(F)cc1)n1cccc(C(=O)NCc2noc(-c3c[nH]c4ncccc34)n2)c1=O [Cpd 311] |  |  | < 25 | > 75 | < 500 | < 500 |  |
| O=C(N[C@H](CCCO)c1nc(-c2c[nH]c3ncccc23)c[nH]1)c1cccn(Cc2ccc(F)c(F)c2)c1=O [Cpd 313] |  |  | 25 to 75 | 25 to 75 | < 500 | < 500 |  |
| O=C(NCc1noc(-c2c[nH]c3ncccc23)n1)c1cc(Cl)cn(Cc2ccc(F)c(F)c2)c1=O [Cpd 314] | > 5 |  | 25 to 75 | > 75 | < 500 | < 500 |  |

— patent publication US9873693B2 (Sunesis Pharmaceuticals, Inc., priority 2006, dated 2018)
